According to US4691046A, “Butanedioic acid mono [(2-dimethylamino] ethyl ester)succinate” (Institut Organicheskoi Khimii Ordena Lenina I Ordena …, priority 1986, dated 1987):

Columns and labels:
[1] = Solubility; type: physicochemical
[2] = Blood glucose and organ glycogen upon predetermined (2.5 h) cold treatment (adaptation experiment); type: in vivo, mice; details: no adaptation, preparation 1 hour prior to the testing effect, 2.5 h at -14° C.
[3] = Toxicity upon intraperitoneal administration; details: mouse, in vivo, ip

SMILES: CN(C)CCOC(=O)CCC(=O)O [Compound of this invention, butanedioic acid mono[(2-dimethylamino)ethyl ester]succinate]
- solubility in acetone ([1]; acetone): sparingly soluble
- solubility in ethanol ([1]; ethanol): sparingly soluble
- solubility in water ([1]; water): well soluble
- Glycogen, heart ([2]; control 1.7 ± 0.2): 2.2 ± 3.4 mg/g
- Glycogen, liver ([2]; control 6.7 ± 0.4): 7.1 ± 2.6 mg/g
- Blood glucose ([2]; control 37 ± 6): 59 ± 2.6 mg. %
- LD50 [3]: 3040 mg/kg
